Experimental data as given in ChEMBL document CHEMBL5625205, “3-Methoxy-2-phenylimidazo[1,2-b]pyridazines highly active against Mycobacterium tuberculosis and Mycobacterium marinum” (Eur J Med Chem, 2023).
Values after ≈ are worked out from the molar mass of the structure shown. Active and inactive are the calls of the source. The calls are words filed in the database; no cut-off is given here.

How the values were obtained:
[1] = tested on: Mycobacterium tuberculosis; test: Antimycobacterial activity against Mycobacterium tuberculosis H37Ra assessed as inhibition of bacterial growth measured for 5 days by luminometer; format: functional; conditions: 120 h, time 5 day
Mycobacterium marinum = test: Antimycobacterial activity against Mycobacterium marinum assessed as inhibition of bacterial growth measured for 5 days by luminometer; format: functional; conditions: 120 h, time 5 day
[2] = Octanol-water distribution coefficient, logD of the compound at pH 7.4 by HPLC analysis; format: physicochemical
[3] = Kinetic solubility of compound in DMSO at pH 2 incubated for 30 mins by laser nephelometry; format: physicochemical; conditions: read-out: Kinetic_solubility
[4] = Kinetic solubility of compound in DMSO at pH 6.5 incubated for 30 mins by laser nephelometry; format: physicochemical; conditions: read-out: Kinetic_solubility
[5] = Metabolic stability in mouse liver microsomes assessed as half life incubated for 60 mins in presence of NADPH; format: ADME, Microsome
[6] = Metabolic stability in mouse liver microsomes assessed as intrinsic clearance incubated for 60 mins in presence of NADPH; format: ADME, Microsome; conditions: read-out: CLH
[7] = tested on: Mycobacterium tuberculosis; test: Antimycobacterial activity against Mycobacterium tuberculosis H37Ra infected in mouse assessed as reduction in relative light unit in lung at 30 to 300 mg/kg,po administrated once daily for 5 days; format: functional, organism-based; conditions: dose 30-300 mg/kg, time 5.0 day

Row | SMILES | MIC90 [1] [µM] | MIC90 (Mycobacterium marinum) [µM] | also measured
1 | COc1cccc(CNc2ccc3nc(-c4ccccc4F)c(OC)n3n2)c1 | 6.61 (≈ 2.5 µg/mL) | 6.61 (≈ 2.5 µg/mL) | –
2 | CN(Cc1ccccc1)c1ccc2nc(-c3ccc(Cl)cc3)c(O)n2n1 | 274 (≈ 100 µg/mL) | > 274 | –
3 | CN(Cc1ccccc1)c1ccc2nc(-c3ccccc3)c(O)n2n1 | 303 (≈ 100 µg/mL) | > 303 | –
4 | CN(Cc1ccccc1)c1ccc2nc(-c3ccc(Br)cc3)c(O)n2n1 | 244 (≈ 99.9 µg/mL) | > 244 | –
5 | COc1c(-c2cccc([N+](=O)[O-])c2)nc2ccc(N(C)Cc3ccccc3)nn12 | > 250 | > 250 | –
6 | COc1c(-c2ccccc2)nc2ccc(SCc3ccccc3Cl)nn12 | > 260 | – | –
7 | COc1c(-c2ccccc2)nc2ccc(Cl)nn12 | 385 (≈ 100 µg/mL) | – | –
8 | COc1c(-c2ccccc2)nc2ccc(SCc3ccsc3)nn12 | 0.7 (≈ 0.247 µg/mL) | 1.41 (≈ 0.498 µg/mL) | –
9 | CN(Cc1ccccc1)c1ccc2nc(-c3ccc(F)cc3)c(O)n2n1 | 144 (≈ 50.2 µg/mL) | 144 (≈ 50.2 µg/mL) | –
10 | CN(Cc1ccccc1)c1ccc2nc(-c3ccc(F)cc3F)c(O)n2n1 | 273 (≈ 100 µg/mL) | > 273 | –
11 | COCCOc1c(-c2ccccc2)nc2ccc(SCc3cccc(OC)c3)nn12 | 29.7 (≈ 12.5 µg/mL) | 119 (≈ 50.2 µg/mL) | –
12 | N#Cc1c(-c2ccccc2)nc2ccc(OCc3ccccc3)nn12 | > 300 | > 300 | –
13 | COc1ccc(CSc2ccc3nc(-c4ccc(Cl)c(Cl)c4)c(OC)n3n2)cc1 | > 220 | > 220 | –
14 | COc1cccc(CS(=O)(=O)c2ccc3nc(-c4ccc(F)cc4)c(OC)n3n2)c1 | 234 (≈ 100 µg/mL) | 234 (≈ 100 µg/mL) | –
15 | COc1c(-c2ccc(Br)cc2)nc2ccc(N(C)Cc3ccccc3)nn12 | 5.91 (≈ 2.5 µg/mL) | 11.8 (≈ 5 µg/mL) | –
16 | COc1cccc(CNc2ccc3nc(-c4ccc(C(F)(F)F)cc4)c(OC)n3n2)c1 | 11.7 (≈ 5.01 µg/mL) | 23.3 (≈ 9.98 µg/mL) | –
17 | COc1cccc(COc2ccc3nc(-c4ccc(F)cc4)c(OC)n3n2)c1 | 2.64 (≈ 1 µg/mL) | 2.64 (≈ 1 µg/mL) | –
18 | COc1c(-c2ccccc2)nc2ccc(N(C)Cc3ccccc3)nn12 | 2.9 (≈ 0.999 µg/mL) | 1.45 (≈ 0.499 µg/mL) | –
19 | COc1c(-c2ccccc2)nc2ccc(SCc3nc4ccccc4n3C)nn12 | 24.9 (≈ 10 µg/mL) | 250 (≈ 100 µg/mL) | –

Row | SMILES | MIC90 [1] [µM] | MIC90 (Mycobacterium marinum) [µM] | also measured
20 | COc1c(-c2ccc(F)cc2F)nc2ccc(N(C)Cc3ccccc3)nn12 | 0.64 (≈ 0.243 µg/mL) | 0.64 (≈ 0.243 µg/mL) | logD [2]: 4.6; solubility kinetic at 0.5 h [3]: 25 µg/mL (≈ 65.7 µM); solubility kinetic at 0.5 h [4]: 1.6 µg/mL (≈ 4.21 µM); half-life [5]: 8 min; microsomal CLint [6]: 215 µL/min/mg; Activity [7]: inactive
21 | Brc1c(-c2ccccc2)nc2ccc(OCc3ccccc3)nn12 | > 260 | > 260 | –
22 | COc1cccc(CNc2ccc3nc(-c4cccc([N+](=O)[O-])c4)c(OC)n3n2)c1 | > 240 | > 240 | –
23 | COc1cccc(CSc2ccc3nc(-c4ccc(F)cc4)c(CN(C)C)n3n2)c1 | 23.7 (≈ 10 µg/mL) | 47.3 (≈ 20 µg/mL) | –
24 | COc1c(-c2ccc(Cl)cc2)nc2ccc(N(C)Cc3ccccc3)nn12 | 6.6 (≈ 2.5 µg/mL) | 6.6 (≈ 2.5 µg/mL) | –
25 | COc1ccc(CSc2ccc3nc(-c4ccccc4)c(OC)n3n2)cc1 | 5.3 (≈ 2 µg/mL) | 5.3 (≈ 2 µg/mL) | –
26 | COc1cccc(CNc2ccc3nc(-c4ccc(F)cc4)c(OC)n3n2)c1 | 6.61 (≈ 2.5 µg/mL) | 13.2 (≈ 4.99 µg/mL) | –
27 | COc1cccc(CS(=O)(=O)c2ccc3nc(-c4ccc(F)cc4F)c(OC)n3n2)c1 | 225 (≈ 100 µg/mL) | 225 (≈ 100 µg/mL) | –
28 | COCCOc1c(-c2ccccc2)nc2ccc(SCc3ccccc3)nn12 | 255 (≈ 99.8 µg/mL) | 63.9 (≈ 25 µg/mL) | –
29 | COc1cccc(CSc2ccc3nc(-c4ccc(F)cc4F)c(CN4CCOCC4)n3n2)c1 | 207 (≈ 99.9 µg/mL) | 207 (≈ 99.9 µg/mL) | –
30 | COc1c(C)nc2ccc(Oc3ccccc3)nn12 | > 117 | – | –
31 | CCOc1c(-c2ccccc2)nc2ccc(SCc3ccccc3)nn12 | 69.2 (≈ 25 µg/mL) | 69.2 (≈ 25 µg/mL) | –
32 | COc1cccc(CSc2ccc3nc(-c4ccc(F)cc4F)cn3n2)c1 | 261 (≈ 100 µg/mL) | 261 (≈ 100 µg/mL) | –
33 | COc1c(-c2ccccc2)nc2ccc(SCc3ccccc3)nn12 | 1.44 (≈ 0.5 µg/mL) | 0.72 (≈ 0.25 µg/mL) | –
34 | Ic1c(-c2ccccc2)nc2ccc(OCc3ccccc3)nn12 | > 230 | > 230 | –
35 | COc1cccc(CSc2ccc3nc(-c4ccc(Cl)cc4)c(OC)n3n2)c1 | 9.71 (≈ 4 µg/mL) | 3.03 (≈ 1.25 µg/mL) | –
36 | Oc1ccccc1-c1nc2ccc(SCc3ccccc3)nn2c1Br | 243 (≈ 100 µg/mL) | 243 (≈ 100 µg/mL) | –
37 | c1ccc(CSc2ccc3nc(-c4ccccc4)cn3n2)cc1 | > 315 | > 315 | –
38 | O=c1oc2ccccc2c2nc3ccc(SCc4ccccc4)nn3c12 | 278 (≈ 99.9 µg/mL) | 278 (≈ 99.9 µg/mL) | –
